The values that follow are results of earlier work, collected in patent US8906890B2, “Very low-dosed solid oral dosage forms for HRT” (Bayer Intellectual Property GmbH, priority 2010, dated 2014).

The conditions of this data set: 2 mg E2 orally.

`C[C@]12CC[C@@H]3c4ccc(O)cc4CC[C@H]3[C@@H]1CC[C@@H]2O` [E2, estradiol]: the estrogen-related adverse events result is listed as “increased estrogen-related adverse events”.
